Laboratory results: US9573975B2, “Melanoma antigen peptide and uses thereof” (INSERM (INSTITUT NATIONAL DE LA SANTE ET DE LA RECHERCHE …, priority 2012, dated 2017)

Experiments:
Type in all cases: cell-based, human
[1] = system: CD4 T cells in PBMC from melanoma patients; assay: PBMC from melanoma patients stimulated with MELOE-1, restimulated with peptides, CD4/IFN-γ and CD4/IL4 staining; conditions: for Th1 responses, share of tested microcultures: of 576 tested microcultures, melanoma patients; for melanoma patients with CD4 specific responses (mainly Th1, IFN-g production) / melanoma patients with Th2 responses: responding/tested patients; for melanoma patients with Th2 responses: IL4
Procedure: FIG. 2: (A) Percentages of cytokine producing CD4 T cells among positive microcultures. Fourteen days after PBMC stimulation with MELOE-1 whole polypeptide (2-46), microcultures were re-stimulated with each indicated peptide during 5 hours. IFN-γ (left panel) and IL4 (right panel) production was then assessed by a triple labeling IFN-γ-IL4-CD4. Results were analyzed with a non-parametric test (Kruskal-Wallis) followed by a Dunns post-test. (B) Frequency of microcultures containing CD4 T cells specific for MELOE-1 peptides (assessed by IFN-γ or IL4 intracellular staining after re-stimulation with the 3 indicated peptides). 576 microcultures (from 10 melanoma patients) were analyzed by a contingency table followed by a Fisher exact test.
PBMC from melanoma patients were stimulated with 10 μM of MELOE-1. After 14 days, the presence of CD4 T cells specific for the different regions of MELOE-1 was assessed by restimulating cells with MELOE-12-21, MELOE-111-30 and MELOE-122-46 peptides, followed by CD4/IFN-γ double staining for the detection of Th1 responses, and by CD4/IL4 double staining for Th2 responses. Between brackets is indicated the mean % of cytokine producing CD4 T cells, in positive microcultures.
PBMC from healthy donors or melanoma patients (2·10^5 cells/well) were cultured for 14 days with 10 μM of MELOE-1 whole antigen (46 amino acids) in RPMI medium supplemented with 8% HS, 50 IU/ml of rIL-2 (Chiron, France) and L-Glutamin, in 96-well multiplates. Micro cultures were then restimulated individually with each overlapping peptide (MELOE-12-21, MELOE-111-30, MELOE-118-37, MELOE-126-46 or MELOE-122-46 for melanoma patients) in the presence of 10 μg/mL brefeldin A for 5 hours and the percentage of CD4^+ specific T cells was assessed by TNF-α, IFN-γ or IL-4 intracellular staining A negative control without peptide was included in all experiments.
(§1) Lymphocytes were stimulated for 5 hours in the presence of brefeldin A (10 μg/mL) either with peptide alone (10 μM) in an autopresentation assay or with B-EBV or HLA-class II expressing melanoma cells pulsed 2 hours with the cognate peptide, at a ratio 1:2. In some experiments, blocking mAb against HLA-DP (clone B7.21 from Dr Charron, UMR940, Paris), HLA-DQ (clone SPVL3, Beckman Coulter) or HLA-DR (clone L243, BD Biosciences) were added at a concentration of 12.5 μg/ml. Cells were then stained with APC-conjugated anti-CD4 mAb, fixed with 4% paraformaldehyde, labeled with PE-conjugated anti-cytokine mAb and analyzed by flow cytometry.
In order to confirm the immunogenicity of each MELOE-1 regions in melanoma patients, we stimulated melanoma patients PBMC with the MELOE-1 whole protein, and tested the reactivity of stimulated lymphocytes towards the three most immunogenic regions: 2-21, 11-30, and 22-46. For this study, instead of challenging microcultures with the 18-37 peptide, that appeared poorly immunogenic, we extended the C-terminus region from 26-46 to 22-46, in order to also detect responses to our previously described HLA-DR11-restricted epitope (24-37). […] We tested the induction of CD4 specific responses from MELOE-1 stimulated PBMC of 10 melanoma patients. We documented CD4 responses specific for the central region of MELOE-1 (11-30) for 7/9 patients, whereas responses specific for MELOE-12-21 and MELOE-122-46 were respectively detected in 4/9 and 5/9 patients (Table III). These responses were mainly Th1 responses (IFN-g production) while less frequent Th2 responses specific for the three regions of MELOE-1 were detected in 3/9 patients for MELOE-12-21, 2/9 patients for MELOE-111-30 and 5/9 patients for MELOE-122-46 (Table III). […] Concerning Th2 responses, much less frequent, the C-term region appeared to induce more frequently the growth of IL-4 producing CD4 T cells than the two other regions (FIG. 2A). […]

[2] = system: MELOE-12-21 specific CD4 T cell clone (9C12-DQβ1*0202); assay: Peptide stimulation of CD4 T cell clone 9C12, intracellular cytokine staining; conditions: cognate peptide 10 μM, 5 hours
Procedure: (§2) FIG. 5: Minimal peptides recognized by MELOE-1 specific CD4 T cell clones. MELOE-1 specific CD4 T cell clones were incubated with various concentrations of the indicated peptides during 5 hours in presence of Brefeldin A. TNF-α production was assessed by intracellular labeling with an anti-TNF-α specific antibody. The core peptide sequence is indicated in bold on each figure panel, and black circles illustrate the best fitting peptide.
as §1
(§3) We also documented the T helper profile of each T cell clone, by stimulating the CD4 T cell clones with the cognate peptide, and analyzing cytokine production. All the clones expressed Th1 cytokines (TNFα, IFNγ, IL2 and GM-CSF). On the contrary, these clones differ in their expression of Th2 cytokines. Indeed, the two DQ2 restricted T cell clones (9C12 and 4E2) and the DR1 restricted one (5F9) also strongly express two Th2 cytokines (IL4, and IL13), whereas the DR11-restricted T cell clone only weakly expressed IL4 (Table IV). None of the CD4 T cell expresses IL10 or IL5 at a significant level.
(§4) Three shorter peptides were better recognized by the DQ2-restricted 9C12 T cell clone, the shortest one being MELOE-17-19 (13-mer), recognized with an EC50 of 100 nM. The deletion of the two amino acids in C-term strongly reduces T cell clone recognition. […] Nonetheless all of these clones recognized a series of shortened peptides, thus we cannot formally assess that the shortest ones will be the exact peptides naturally presented on class II molecules.

[3] = system: MELOE-111-30 specific CD4 T cell clone (1A5-DRβ1*1101); assay: Peptide stimulation of CD4 T cell clone 1A5, intracellular cytokine staining; conditions: cognate peptide 10 μM, 5 hours
Procedure: as §2, §1, §3, §4

[4] = system: MELOE-111-30 specific CD4 T cell clone (5F9-DRβ1*0101); assay: Peptide stimulation of CD4 T cell clone 5F9, intracellular cytokine staining; conditions: clone 5F9, cognate peptide 10 μM, 5 hours
Procedure: as §2, §1, §3, §4

## SCVGYPDEATSREQFLPSEG (SCVGYPDEATSREQFLPSEC) [MELOE-12-21]
[1]; Pt ≠ 1
  mean % of cytokine producing CD4 T cells, in positive microcultures (IFN-γ, Th1): (0.7%)
[1]; Pt ≠ 2
  mean % of cytokine producing CD4 T cells, in positive microcultures (IFN-γ, Th1): (0.8% ± 0.2)
[1]; Pt ≠ 3
  mean % of cytokine producing CD4 T cells, in positive microcultures (IFN-γ, Th1): (1.7% ± 2.9)
[1]; Pt ≠ 4
  mean % of cytokine producing CD4 T cells, in positive microcultures (IL4, Th2): (0.7%)
[1]; Pt ≠ 5
  mean % of cytokine producing CD4 T cells, in positive microcultures (IFN-γ, Th1): (0.6%)
  mean % of cytokine producing CD4 T cells, in positive microcultures (IL4, Th2): (0.7% ± 0.1)
[1]; Pt ≠ 9
  mean % of cytokine producing CD4 T cells, in positive microcultures (IL4, Th2): (0.6%)
[1]
  Th1 responses, share of tested microcultures: 3.3%
  melanoma patients with CD4 specific responses (mainly Th1, IFN-g production): 4/9
  melanoma patients with Th2 responses: 3/9
[2]
  Cytokine profile: GM-CSF: GM-CSF ^high
  Cytokine profile: IFN: IFN ^high
  Cytokine profile: IL2: IL2 ^high
  Cytokine profile: IL4: IL4 ^high
  Cytokine profile: IL5: IL5 ^low
  Cytokine profile: IL10: IL10 ^neg
  Cytokine profile: IL13: IL13 ^high
[2]; autopresentation
  Cytokine profile: TNF: TNF ^high

## TSREQFLPSEGAACPPWHPS [MELOE-111-30]
[1]; Pt ≠ 1
  mean % of cytokine producing CD4 T cells, in positive microcultures (IFN-γ, Th1): (1.4% ± 0.7)
  mean % of cytokine producing CD4 T cells, in positive microcultures (IL4, Th2): (1%)
[1]; Pt ≠ 2
  mean % of cytokine producing CD4 T cells, in positive microcultures (IFN-γ, Th1): (1.6% ± 1.2)
[1]; Pt ≠ 3
  mean % of cytokine producing CD4 T cells, in positive microcultures (IFN-γ, Th1): (16.2% ± 33.2)
[1]; Pt ≠ 4
  mean % of cytokine producing CD4 T cells, in positive microcultures (IFN-γ, Th1): (0.9% ± 0.5)
[1]; Pt ≠ 5
  mean % of cytokine producing CD4 T cells, in positive microcultures (IFN-γ, Th1): (1.5% ± 1.1)
[1]; Pt ≠ 6
  mean % of cytokine producing CD4 T cells, in positive microcultures (IFN-γ, Th1): (1.5% ± 1.9)
[1]; Pt ≠ 8
  mean % of cytokine producing CD4 T cells, in positive microcultures (IFN-γ, Th1): (2.9% ± 0.04 )
[1]; Pt ≠ 9
  mean % of cytokine producing CD4 T cells, in positive microcultures (IL4, Th2): (0.6% ± 0.09)
[1]
  Th1 responses, share of tested microcultures: 10.8%
  melanoma patients with CD4 specific responses (mainly Th1, IFN-g production): 7/9
  melanoma patients with Th2 responses: 2/9
[3]
  Cytokine profile: GM-CSF: GM-CSF ^high
  Cytokine profile: IFN: IFN ^high
  Cytokine profile: IL2: IL2 ^high
  Cytokine profile: IL4: IL4 ^low
  Cytokine profile: IL5: IL5 ^neg
  Cytokine profile: IL10: IL10 ^neg
  Cytokine profile: IL13: IL13 ^neg
[3]; autopresentation
  Cytokine profile: TNF: TNF ^high
[4]
  Cytokine profile: GM-CSF: GM-CSF ^high
  Cytokine profile: IFN: IFN ^high
  Cytokine profile: IL2: IL2 ^low
  Cytokine profile: IL4: IL4 ^high
  Cytokine profile: IL5: IL5 ^neg
  Cytokine profile: IL10: IL10 ^neg
  Cytokine profile: IL13: IL13 ^high
[4]; autopresentation
  Cytokine profile: TNF: TNF ^high
